Common to all, as to type: cell-based, human
The test system of experiment [1] is hESC-derived neural precursors. The experiment in a line: RT-PCR of Olig2, Ngn2 and HB9 transcripts after early neural induction and 2-3 weeks treatment. The procedure: (§1) To develop spheres enriched for neural precursors, hESC colonies were removed intact from the feeders, 6 days after passage, with collagenase IV. They were cultured in low adherent culture dishes (HydroCell) in DMEM/F12 (1:1) basal medium (Invitrogen), supplemented with 2% B27, 2 mM glutamine, 50 units/ml penicillin, 50 μg/ml streptomycin (all from Invitrogen), and 20 ng/ml rh-FGF-2 (Peprotech). In some experiments the medium was also supplemented with noggin 600-700 ng/ml (both from R&D) for 14-16 days.
The medium was further supplemented with 1 μM retinoic acid (“RA”; Sigma) or 0.5 μM purmorphamine (“Pur”; a hedgehog agonist; Merck), or combination of Pur and RA, for 3 weeks.
Total RNA was extracted from free-floating clusters after 2 and 3 weeks of treatment with RA, Pur or both. Total RNA was isolated using TRI-reagent (Sigma) followed by treatment with RNase-free DNase (Ambion). cDNA synthesis was carried out using Moloney murine leukemia virus (M-MLV) reverse transcriptase and random primers, according to the manufacturers' instructions (Promega). To analyze relative expression of different mRNAs, the amount of cDNA was normalized based on the signal from GAPDH mRNA. PCR was carried out using standard protocols with Taq DNA Polymerase (Promega). Amplification conditions were as follows: denaturation at 94° C. for 30 seconds, annealing at 55° C. for 30 seconds, and extension at 72° C. for 45 seconds. The number of cycles varied between 30 and 40, depending on particular mRNA abundance. Primer sequences (forward and reverse 5′-3′) were as shown in Table 1 (sequence identification number (SEQ ID NO.) according to the Sequence Listing is also provided):
Following this initial induction of early neural differentiation, the role of purmorphamine (Pur) and retinoic acid (RA) in further specification towards a caudal and ventral fate was examined. The neural precursors were further cultured 2-3 weeks with Pur, RA, or the combination of RA & Pur as well as with FGF2 as a control. Caudalization and ventralization were studied by analyzing the expression of Olig-2, Ngn2 and HB9 transcripts (FIGS. 2A, 2B and 2C). […] Without being bound by theory, induction of expression of these transcription factors by RA after 3 weeks (lane 6 in FIGS. 2A and 2C) may be related to RA-mediated induction of endogenous SHH gene expression.

For experiment [2], the system named is hESC-derived neural precursors. The experiment in a line: Immunostaining for HB9 after 1 week RA, 3 weeks treatment and 4-6 weeks maturation in MNM. The note with it: RA 1 week, then 3 weeks treatment, then maturation 4-6 weeks in MNM. The procedure:
(§2) Alternatively, the spheres were cultured in the same medium supplemented with 1 μM RA (Sigma) for 1 week. Followed by further culturing the spheres in neurobasal medium (Invitrogen) supplemented with 2 mM L-glutamine (Invitrogen), 50 units/ml penicillin (Invitrogen), 50 μg/ml streptomycin (Invitrogen), 1% non-essential amino-acids (Invitrogen), N2 (Invitrogen), 1 μM db-cAMP (Sigma) and 1 μM RA (Sigma), or 0.5 μM Pur (Merck), or combination of RA and Pur, for 2-3 weeks.
(§3) The spheres were then further cultured in the same neurobasal medium supplemented with 2 mM L-glutamine, 50 units/ml penicillin, 50 μg/ml streptomycin, 1% non-essential amino-acids, 1% N2 (all from Invitrogen), 1 μM db-cAMP and 10 ng/ml of BDNF, GDNF and IGF-I (all from Peprotech). This medium was designated as motor neuron medium (MNM). The clusters could be cultured in suspension in this medium for prolonged periods (5 months). At various time points along this period the cells were plated on 10 μg/ml Poly-D-Lysine (Sigma) and 5 μg/ml laminin (Sigma) for terminal differentiation in the presence or absence of the γ-secretase inhibitor [N-(3,5-Difluorophenacetyl)-L-alanyl]-S-phenylglycine t-butyl ester (DAPT; 1 μM, Sigma).
The following primary antibodies were used: polyclonal rabbit anti Isl1 (1:750, Abeam), mouse anti HB9 (1:50, DSHB), polyclonal goat anti CHAT (1:200, R&D), and goat anti olig2 (1:75, R&D). […]

Experiment [3] concerns hESC-derived neural spheres. Description: Olig-2, HB9 and CHAT expression after caudalization, ventralization and maturation in MNM. The procedure:
as §2, §3
(§4) The following primary antibodies were used: polyclonal rabbit anti Isl1 (1:750, Abeam), mouse anti HB9 (1:50, DSHB), polyclonal goat anti CHAT (1:200, R&D), and goat anti olig2 (1:75, R&D).
(§5) The following secondary antibodies: goat anti-rabbit conjugated to Cy-3 (1:1000, Jackson), goat anti-mouse conjugated to Cy-3 (1:500, Jackson), donkey anti goat conjugated to rhodamin (1:300, Jackson), Texas red or Alexa 488-conjugated goat anti-mouse IgM (1:100, Jackson), goat anti-rabbit IgG (1:100, Molecular Probes), goat anti-mouse IgG (1:100, Molecular Probes) or donkey anti-goat IgG (1:250, Jackson) were used as secondary antibodies, where appropriate.
In a similar set of experiments, after initial early neural induction in the presence of FGF2, the spheres were induced to take a caudal fate by 7 days treatment with RA. […]

Experiment [4] deals with hESC-derived neural progenitors with caudal and ventral specification. Description: Terminal motor neuron differentiation of plated spheres in the presence of DAPT (HB9, CHAT immunostaining). The procedure:
as §3, §4, §5
To further enhance the motor neuron differentiation, caudalization and ventralization were followed by blocking Notch signaling with the γ-secretase inhibitor DAPT. After 2-3 weeks of maturation in MNM, the spheres were plated on laminin and terminally differentiated in the presence of DAPT for 7-10 days.

Experiment [5] concerns hESC-derived neural precursors. Description: Immunostaining for Olig-2 and Isl-1 after early neural induction and 3 weeks treatment. To be noted: treatment for 3 weeks.
Procedure: To develop spheres enriched for neural precursors, hESC colonies were removed intact from the feeders, 6 days after passage, with collagenase IV. They were cultured in low adherent culture dishes (HydroCell) in DMEM/F12 (1:1) basal medium (Invitrogen), supplemented with 2% B27, 2 mM glutamine, 50 units/ml penicillin, 50 μg/ml streptomycin (all from Invitrogen), and 20 ng/ml rh-FGF-2 (Peprotech). In some experiments the medium was also supplemented with noggin 600-700 ng/ml (both from R&D) for 14-16 days. […] The medium was further supplemented with 1 μM retinoic acid (“RA”; Sigma) or 0.5 μM purmorphamine (“Pur”; a hedgehog agonist; Merck), or combination of Pur and RA, for 3 weeks. The following primary antibodies were used: polyclonal rabbit anti Isl1 (1:750, Abeam), mouse anti HB9 (1:50, DSHB), polyclonal goat anti CHAT (1:200, R&D), and goat anti olig2 (1:75, R&D). The following secondary antibodies: goat anti-rabbit conjugated to Cy-3 (1:1000, Jackson), goat anti-mouse conjugated to Cy-3 (1:500, Jackson), donkey anti goat conjugated to rhodamin (1:300, Jackson), Texas red or Alexa 488-conjugated goat anti-mouse IgM (1:100, Jackson), goat anti-rabbit IgG (1:100, Molecular Probes), goat anti-mouse IgG (1:100, Molecular Probes) or donkey anti-goat IgG (1:250, Jackson) were used as secondary antibodies, where appropriate.
A further experiment concerns hESC clusters. The experiment in a line: Early neural induction of hESC clusters (PSA-NCAM expression). To be noted: chemically defined medium with FGF2 with or without noggin, two weeks. On the procedure:
as §1
To induce the differentiation of hESCs towards motor neurons, hESC clusters were initially cultured in chemically defined medium supplemented with FGF2 with or without noggin for two weeks. At the end of this culture period the clusters acquired round morphology typical of neural spheres.

Where [6] appears, read: RA 7 days, Pur with or without RA 2-3 weeks, 4 weeks maturation in MNM, plated on laminin, no DAPT.
Where [7] appears, read: DAPT 1 μM for 7-10 days after 2-3 weeks maturation in MNM, plated on laminin.

For the compound `c1ccc2c(Oc3nc(Nc4ccc(N5CCOCC5)cc4)c4ncn(C5CCCCC5)c4n3)cccc2c1` [Pur, purmorphamine], in experiment [1] (after 2 weeks of treatment), the “expression of HB9 transcripts” value was “induced the expression” and the “expression of Olig-2 transcripts” value is “induced the expression”. In experiment [1] (after 3 weeks of treatment), the “expression of HB9 transcripts” value is recorded as “induced the expression” and the “expression of Olig-2 transcripts” value was “induced the expression”. The “cells expressing HB9 protein” value in experiment [2] was 66 % of total cells. Besides, in experiment [3] (7 days RA, then Pur in the presence or absence of RA for 2-3 weeks), the “cells within the spheres expressing Olig-2” value is given as 23-54 % of the cells. In experiment [3] (setting [6]), the “cells expressing CHAT” value is listed as 20-50 % of the cells and the “cells expressing HB9” value is 20-50 % of the cells.
Turning to `C[C@H](NC(=O)Cc1cc(F)cc(F)c1)C(=O)N[C@H](C(=O)OC(C)(C)C)c1ccccc1` [DAPT, [N-(3,5-Difluorophenacetyl)-L-alanyl]-S-phenylglycine t-butyl ester], in experiment [4] (setting [7]), the “increase of percentage of HB9+ cells” value is 1.5-2 folds and the “percentage of HB9+ cells” value is listed as 40-70 % of total cells. The “neurite outgrowth and branching from CHAT expressing cells” value in experiment [4] (DAPT during terminal differentiation) is “significantly augmented”.
With “FGF2: basic fibroblast growth factor, used for early neural induction and as control treatment”, in experiment [1] (after 2 weeks of treatment), the “expression of HB9 transcripts” value was “did not induce the expression”, the “expression of Ngn2 transcripts” value is “did not induce the expression” and the “expression of Olig-2 transcripts” value is given as “did not induce the expression”. In addition, in experiment [1] (after 3 weeks of treatment), the “expression of HB9 transcripts” value is “did not induce the expression”, the “expression of Ngn2 transcripts” value is reported as “did not induce the expression” and the “expression of Olig-2 transcripts” value is reported as “did not induce the expression”. Moreover, in experiment [5], the “cells expressing Isl-1” value is listed as “not expressed” and the “cells expressing Olig-2” value is recorded as “did not induce the expression”. Also, the “cells expressing HB9 protein” value in experiment [2] is recorded as “not expressed”. Also, the “neural precursor cells expressing PSA-NCAM within the clusters” value in the experiment on hESC clusters is listed as “highly enriched”.

These data come from US8735149B2, “Motor neurons developed from stem cells” (Hadasit Medical Research Services & Development Limited, priority 2008, dated 2014).
